# Laboratory results published in patent publication US20060069132A1, “Azolecarboxamide herbicides” (priority 2004, published 2006).
# Where two headings read alike, the source gives them in different places.
# Legend:
# [1] = system: common (oilseed) sunflower; test: Test C pre-/postemergence herbicide test; type: in vivo, Helianthus annuus
# Procedure, shortened: (§1)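 Emerged plants at the 1- to 4-leaf stage (2–18 cm), or freshly planted seeds, received test chemicals in a non-phytotoxic solvent mixture with surfactant. Response was visually scored against controls after 12 to 14 days in the greenhouse, on a 0 (no effect) to 100 (complete control) scale.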
# [2] = system: large crabgrass; test: Test C pre-/postemergence herbicide test; type: in vivo, Digitaria sanguinalis; details: for pest or weed control at 250 g/ha: 250 g ai/ha
# Procedure, shortened: as §1
# [3] = system: redroot pigweed; test: Test A pre-/postemergence herbicide test; type: in vivo, Amaranthus retroflexus; details: for pest or weed control at 500 g/ha / pest or weed control at 2000 g/ha: Amaranthus retroflexus, 240 h
# Procedure, shortened: (§2)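 Both application timings were run together: directed soil spray over freshly planted seeds in sandy loam, and runoff spray onto 2–10 cm seedlings. Evaluation after ~10 days in greenhouse used a 0–100 visual scale versus untreated controls.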
# [4] = system: goosegrass; test: Test C pre-/postemergence herbicide test; type: in vivo, Eleusine indica
# Procedure, shortened: as §1
# [5] = system: large crabgrass; test: Test A pre-/postemergence herbicide test; type: in vivo, Digitaria sanguinalis; details: for pest or weed control at 500 g/ha / pest or weed control at 2000 g/ha: Digitaria sanguinalis, 240 h
# Procedure, shortened: as §2
# [6] = system: velvetleaf; test: Test C pre-/postemergence herbicide test; type: in vivo, Abutilon theophrasti
# Procedure, shortened: as §1
# [7] = system: pigweed; test: Test C pre-/postemergence herbicide test; type: in vivo, Amaranthus retroflexus
# Procedure, shortened: as §1
# [8] = 125 g ai/ha, scale 0 (no effect) to 100 (complete control), visual, 12 to 14 days, preemergence
# [9] = Postemergence, 500 g ai/ha, 0 to 100 scale, 0 no effect, 100 complete control
# [10] = Postemergence, 2000 g ai/ha, 0 to 100 scale, 0 no effect, 100 complete control
# [11] = Preemergence, 2000 g ai/ha, visual rating, 0 to 100 scale (0 no effect, 100 complete control)
structure (smiles),measurement,setting,value
CC(=O)c1cccc(NC(=O)c2cc(C(C)(C)C)nn2CCF)c1 [Compound 128],"Plant response rating, Sunflower",[1]; [8],50
same,"Plant response rating (0 = no effect, 100 = complete control), Crabgrass, Large","[2]; 62 g ai/ha, preemergence",100
same,"Plant response rating, Crabgrass, Large",[2]; [8],100
same,Pigweed plant response rating,[3]; [9],50
same,"Plant response rating, Pigweed",[3]; [10],80
same,Pigweed plant response rating,[3]; [11],95
same,Pigweed plant response rating,"[3]; preemergence, 500 g ai/ha, visual injury, 0 to 100 scale (0 no effect, 100 complete control)",60
same,"Plant response rating (0 = no effect, 100 = complete control), Goosegrass","[4]; 62 g ai/ha, preemergence",80
same,"Plant response rating, Goosegrass",[4]; [8],90
same,"Crabgrass, Large plant response rating",[5]; [9],60
same,"Plant response rating, Crabgrass, Large",[5]; [10],70
same,"Crabgrass, Large plant response rating","[5]; Preemergence, 500 g ai/ha, visual rating, 0 to 100 scale (0 no effect, 100 complete control)",90
same,"Crabgrass, Large plant response rating",[5]; [11],100
same,"Plant response rating, Velvetleaf",[6]; [8],100
same,"Plant response rating, Pigweed",[7]; [8],60
"CCOC(=O)c1cccc(NC(=O)c2cc(C(C)(C)C)nn2CC)c1 [Compound 80, ethyl 3-[[[3-(1,1-dimethylethyl)-1-ethyl-1H-pyrazol-5-yl]carbonyl]-amino]benzoate]",pest or weed control at 31 g/ha,"[1]; Helianthus annuus, pre-emergence, 31 g ai/ha, preemergence, scale 0 to 100, read-out: Plant response rating, Sunflower",0%
same,pest or weed control at 125 g/ha,"[1]; Helianthus annuus, pre-emergence, 125 g ai/ha, scale 0 (no effect) to 100 (complete control), visual, 12 to 14 days, read-out: Plant response rating, Sunflower",0%
same,"Plant response rating (0 = no effect, 100 = complete control), Crabgrass, Large","[2]; 62 g ai/ha, preemergence",0
same,pest or weed control at 250 g/ha,"[2]; Digitaria sanguinalis, post-emergence, 312 h, Postemergence, scale 0 to 100, 0 no effect, 100 complete control, read-out: Plant response rating, Crabgrass, Large",90%
same,pest or weed control at 62 g/ha,"[2]; Digitaria sanguinalis, post-emergence, 312 h, postemergence, 62 g ai/ha, scale 0 to 100, read-out: Plant response rating, Crabgrass, Large",90%
same,pest or weed control at 31 g/ha,"[2]; Digitaria sanguinalis, pre-emergence, 312 h, 31 g ai/ha, preemergence, scale 0 to 100, read-out: Plant response rating, Crabgrass, Large",0%
same,pest or weed control at 125 g/ha,"[2]; Digitaria sanguinalis, pre-emergence, 312 h, 125 g ai/ha, scale 0 (no effect) to 100 (complete control), visual, 12 to 14 days, read-out: Plant response rating, Crabgrass, Large",10%
same,pest or weed control at 250 g/ha,"[2]; Digitaria sanguinalis, pre-emergence, 312 h, scale 0 to 100 (0 no effect, 100 complete control), visual, 12 to 14 days, read-out: Plant response rating, Crabgrass, Large",10%
same,pest or weed control at 500 g/ha,"[3]; post-emergence, Postemergence, 500 g ai/ha, 0 to 100 scale, 0 no effect, 100 complete control, read-out: Plant response rating, Pigweed",100%
same,pest or weed control at 2000 g/ha,"[3]; post-emergence, Postemergence, 2000 g ai/ha, 0 to 100 scale, 0 no effect, 100 complete control, read-out: Plant response rating, Pigweed",100%
same,pest or weed control at 500 g/ha,"[3]; pre-emergence, Preemergence, 500 g ai/ha, visual rating, 0 to 100 scale (0 no effect, 100 complete control), read-out: Pigweed plant response rating",70%
same,pest or weed control at 2000 g/ha,"[3]; pre-emergence, Preemergence, 2000 g ai/ha, 0 to 100 scale, 0 no effect, 100 complete control, read-out: Pigweed plant response rating",90%
same,"Plant response rating (0 = no effect, 100 = complete control), Goosegrass","[4]; 62 g ai/ha, preemergence",10
same,pest or weed control at 250 g/ha,"[4]; Eleusine indica, post-emergence, 312 h, Postemergence, 250 g ai/ha, scale 0 to 100, 0 no effect, 100 complete control, read-out: Plant response rating, Goosegrass",80%
same,pest or weed control at 125 g/ha,"[4]; Eleusine indica, post-emergence, 312 h, postemergence, 125 g ai/ha, scale 0 to 100, read-out: Plant response rating, Goosegrass",80%
same,pest or weed control at 62 g/ha,"[4]; Eleusine indica, post-emergence, 312 h, postemergence, 62 g ai/ha, scale 0 to 100, read-out: Plant response rating, Goosegrass",80%
same,pest or weed control at 31 g/ha,"[4]; Eleusine indica, pre-emergence, 312 h, 31 g ai/ha, preemergence, scale 0 to 100, read-out: Plant response rating, Goosegrass",10%
same,pest or weed control at 125 g/ha,"[4]; Eleusine indica, pre-emergence, 312 h, 125 g ai/ha, scale 0 (no effect) to 100 (complete control), visual, 12 to 14 days, read-out: Plant response rating, Goosegrass",10%
same,pest or weed control at 500 g/ha,"[5]; post-emergence, Postemergence, 500 g ai/ha, 0 to 100 scale, 0 no effect, 100 complete control, read-out: Plant response rating, Crabgrass, Large",70%
same,pest or weed control at 2000 g/ha,"[5]; post-emergence, Postemergence, 2000 g ai/ha, 0 to 100 scale, 0 no effect, 100 complete control, read-out: Plant response rating, Crabgrass, Large",90%
same,pest or weed control at 500 g/ha,"[5]; pre-emergence, Preemergence, 500 g ai/ha, visual rating, 0 to 100 scale (0 no effect, 100 complete control), read-out: Crabgrass, Large plant response rating",10%
same,pest or weed control at 2000 g/ha,"[5]; pre-emergence, Preemergence, 2000 g ai/ha, 0 to 100 scale, 0 no effect, 100 complete control, read-out: Crabgrass, Large plant response rating",30%
same,pest or weed control at 250 g/ha,"[6]; Abutilon theophrasti, post-emergence, Postemergence, 250 g ai/ha, scale 0 to 100, 0 no effect, 100 complete control, read-out: Plant response rating, Velvetleaf",100%
same,pest or weed control at 125 g/ha,"[6]; Abutilon theophrasti, post-emergence, postemergence, 125 g ai/ha, scale 0 to 100, read-out: Plant response rating, Velvetleaf",100%
same,pest or weed control at 62 g/ha,"[6]; Abutilon theophrasti, post-emergence, postemergence, 62 g ai/ha, scale 0 to 100, read-out: Plant response rating, Velvetleaf",100%
same,pest or weed control at 31 g/ha,"[6]; Abutilon theophrasti, pre-emergence, 31 g ai/ha, preemergence, scale 0 to 100, read-out: Plant response rating, Velvetleaf",20%
same,pest or weed control at 125 g/ha,"[6]; Abutilon theophrasti, pre-emergence, 125 g ai/ha, scale 0 (no effect) to 100 (complete control), visual, 12 to 14 days, read-out: Plant response rating, Velvetleaf",100%
same,"Plant response rating (0 = no effect, 100 = complete control), Pigweed","[7]; 62 g ai/ha, preemergence",40
same,pest or weed control at 250 g/ha,"[7]; Amaranthus retroflexus, post-emergence, Postemergence, 250 g ai/ha, scale 0 to 100, 0 no effect, 100 complete control, read-out: Plant response rating, Pigweed",100%
same,pest or weed control at 125 g/ha,"[7]; Amaranthus retroflexus, post-emergence, postemergence, 125 g ai/ha, scale 0 to 100, read-out: Plant response rating, Pigweed",100%
same,pest or weed control at 62 g/ha,"[7]; Amaranthus retroflexus, post-emergence, postemergence, 62 g ai/ha, scale 0 to 100, read-out: Plant response rating, Pigweed",100%
same,pest or weed control at 31 g/ha,"[7]; Amaranthus retroflexus, pre-emergence, 31 g ai/ha, preemergence, scale 0 to 100, read-out: Plant response rating, Pigweed",30%
same,pest or weed control at 125 g/ha,"[7]; Amaranthus retroflexus, pre-emergence, 125 g ai/ha, scale 0 (no effect) to 100 (complete control), visual, 12 to 14 days, read-out: Plant response rating, Pigweed",100%
